BigSolDB 2.1

O=C1CCCC(=O)O1
Conditions | solubility (mole fraction)
in acetic acid, 279.65 K | 0.0783
in acetic acid, 282.25 K | 0.0967
in acetic acid, 284.55 K | 0.119
in acetic acid, 287.05 K | 0.152
in acetic acid, 289.55 K | 0.183
in acetic acid, 291.95 K | 0.223
in acetic acid, 294.25 K | 0.27
in acetic acid, 296.65 K | 0.323
in acetic acid, 299.15 K | 0.376
in acetic acid, 302.15 K | 0.436
in acetic acid, 304.05 K | 0.502
in acetic acid, 306.25 K | 0.557
in acetyl acetate, 278.45 K | 0.153
in acetyl acetate, 282.45 K | 0.205
in acetyl acetate, 283.85 K | 0.231
in acetyl acetate, 285.45 K | 0.259
in acetyl acetate, 287.65 K | 0.299
in acetyl acetate, 290.55 K | 0.342
in acetyl acetate, 293.05 K | 0.388
in acetyl acetate, 296.95 K | 0.437
in acetyl acetate, 300.25 K | 0.502
in acetyl acetate, 304.05 K | 0.562
in tetrachloromethane, 282.25 K | 0.00064
in tetrachloromethane, 285.45 K | 0.00073
in tetrachloromethane, 288.05 K | 0.00097
in tetrachloromethane, 291.15 K | 0.00141
in tetrachloromethane, 293.95 K | 0.00182
in tetrachloromethane, 295.95 K | 0.00225
in tetrachloromethane, 300.25 K | 0.00268
in tetrachloromethane, 303.25 K | 0.00321
in tetrachloromethane, 306.25 K | 0.0039
in tetrachloromethane, 309.85 K | 0.00487
in tetrachloromethane, 312.95 K | 0.00544
in tetrachloromethane, 315.55 K | 0.00586
in tetrachloromethane, 318.25 K | 0.00619
in tetrachloromethane, 320.45 K | 0.00639
